For seven compounds, IC50 results are on record in ChEMBL document CHEMBL1146928, “Semisynthesis of C-ring modified triptolide analogues and their cytotoxic activities” (Bioorg Med Chem Lett, 2006).

In experiment [1] the test system is A549. Description: Cytotoxicity against human A549 lung tumor cells. The experiment is classed as functional, cell-based.
Experiment [2] deals with HT-29. Description: Cytotoxicity against human HT29 colon tumor cells. The experiment is classed as functional, cell-based.

Values after ≈ are worked out from the molar mass of the structure shown. Bounds are passed on as bounds.

For `CC(C)[C@]12O[C@H]1[C@@H]1O[C@]13[C@]1(O[C@H]1C[C@H]1C4=C(CC[C@@]13C)C(=O)OC4)[C@H]2OC(=S)n1ccnc1`, the values for the IC50 in experiment [1] and in experiment [2] were 5 µg/mL (≈ 10.6 µM) and 0.88 µg/mL (≈ 1.87 µM), respectively.

On to `CC(C)[C@]12O[C@H]1[C@]13O[C@H]1C[C@H]1C4=C(CC[C@]1(C)[C@@]31O[C@H]1C2=O)C(=O)OC4`, for which the figures for the IC50 in experiment [1] and in experiment [2] were 0.85 µg/mL (≈ 2.37 µM) and 0.7 µg/mL (≈ 1.95 µM), respectively.

In the case of `CC(C)C1=C[C@]23O[C@H]2C[C@H]2C4=C(CC[C@]2(C)[C@@]32O[C@H]2C1=O)C(=O)OC4`, the IC50 in experiment [1] is 1.2 µg/mL (≈ 3.5 µM); in experiment [2], 0.67 µg/mL (≈ 1.96 µM). The matching figures for `CC(C)[C@]12O[C@H]1[C@]13O[C@H]1C[C@H]1C4=C(CC[C@]1(C)[C@@]31O[C@H]1[C@@H]2O)C(=O)OC4`: 0.27 µg/mL (≈ 0.749 µM) and 0.15 µg/mL (≈ 0.416 µM). The matching figures for `CC(C)[C@]12O[C@H]1[C@]13O[C@H]1C[C@H]1C4=C(CC[C@]1(C)[C@@]31O[C@H]1[C@H]2O)C(=O)OC4`: > 10 µg/mL and > 10 µg/mL. As for `CC(C)[C@]12O[C@H]1[C@@H]1O[C@]13[C@]1(O[C@H]1C[C@H]1C4=C(CC[C@@]13C)C(=O)OC4)[C@@H]2OC(=S)n1ccnc1`, the concentration for half-maximal inhibition (IC50) in experiment [1] came to 0.024 µg/mL (≈ 0.051 µM); in experiment [2], 0.004 µg/mL (≈ 0.0085 µM). On to `CC(C)[C@]12O[C@H]1[C@@H]1O[C@@]13[C@@]1(C)CCC4=C(COC4=O)[C@@H]1C[C@@H]1O[C@@]13C2=O` [TRIPTONIDE], for which the IC50 in experiment [2] was < 0.00046 µg/mL.
